λem, λmax and ε data for three compounds are collected here from patent publication US20230159484A1, “FLUORESCENT DYES HAVING HIGH STOKES SHIFT, ON THE BASIS OF BRIDGED BENZOPYRYLIUM SALTS” (DYOMICS GmbH, priority 2020, published 2023).

The structures appear in SMILES notation.

Assay type in all cases: physicochemical
The nature of data set [1]: Fluorescence emission (emission maximum). As to conditions: in PBS. The procedure:
(§1) Depending on the basic structure and substitution, the absorption maxima lie in the entire range of visible light, with a focus at 500-530 nm. The compounds show a high Stokes shift in the range of 80 nm. The absorption is measured, for example, at 25° C. in aqueous or ethanolic solutions with an extinction of 1.0 using a Specord 205 from Analytik Jena, wherein the aqueous solutions are preferably phosphate-buffered salt solutions (PBS buffer; approx. 100 mM sodium chloride and 100 mM total phosphate) and have a pH of 7.5. For example, the emission is measured at 25° C. in dilute aqueous or ethanolic solutions with an extinction of 0.1 using a FP-6600 spectrofluorometer from Jasco, wherein the dilute aqueous solutions are preferably phosphate-buffered salt solutions (PBS buffer; about 100 mM sodium chloride and 100 mM total phosphate) and have a pH of 7.5.

Data set [2] is described as follows: Fluorescence emission (emission maximum).
Data set [3] in a line: UV-Vis absorption (absorption maximum, extinction coefficient). The procedure: as §1

Consider `CC1(C)CC(=O)C(S(=O)(=O)[O-])=C2Oc3cc(O)ccc3C=C21.[Na+]` [Compound 39, 6-hydroxy-1,1-dimethyl-3-oxo-2H-xanthene-4-sulfonate Sodium Salt], for which the results for the λem in data set [1] and in data set [2] (in buffer pH 9) were 485 nm and 536 nm, respectively. In addition, the λmax is on record as 409 nm in data set [3] (UV-Vis in PBS) and 462 nm in data set [3] (UV-Vis in buffer pH 9).

Consider `CCN(CCCCCC(=O)O)c1ccc2c(c1)OC1=C(c3ccncc3)C(=O)CC(C)(C)C1=C2` [Compound 44, 6-[[8,8-dimethyl-6-oxo-5-(4-pyridyl)-7H-xanthene-3-yl]-ethyl-amino]hexanoic Acid], for which the λem is given as 573 nm in data set [1] and 600 nm in data set [2] (in buffer pH 5). For the same compound, the values for the ε in data set [3] (UV-Vis in PBS) and in data set [3] (UV-Vis in buffer pH 5) were 13,000 l/mol*cm and 13300 L/mol/cm, respectively. The λmax came to 472 nm in data set [3] (UV-Vis in PBS) and 523 nm in data set [3] (UV-Vis in buffer pH 5).

In the case of `CC1(C)CC(=O)C(c2ccncc2)=C2Oc3cc(N(CCCCCC(=O)O)CCCS(=O)(=O)[O-])ccc3C=C21.[Na+]` [Compound 45, 3-[5-carboxypentyl-[8,8-dimethyl-6-oxo-5-(4-pyridyl)-7H-xanthene-3-yl]amino]propane-1-sulfonate Sodium Salt], the λem in data set [1] was 570 nm; in data set [2] (in buffer pH 5), 594 nm. Besides, the ε came to 15000 L/mol/cm in data set [3] (UV-Vis in PBS) and 15400 L/mol/cm in data set [3] (UV-Vis in buffer pH 5). Moreover, the λmax amounted to 470 nm in data set [3] (UV-Vis in PBS) and 524 nm in data set [3] (UV-Vis in buffer pH 5).
